Data published in the Kinase Knowledgebase extract (Sharma et al. 2016).

What was measured:
Test in all cases: Enzyme Assay
[1] = target: CDK2 (human) (UniProt P24941)
[2] = target: MAPK14 (human) (UniProt Q16539)
[3] = target: PIK3CA (human) (UniProt P42336)
[4] = target: PIK3CG (human) (UniProt P48736)
Sequence of PIK3CG (human) (P48736 whole entry, looked up): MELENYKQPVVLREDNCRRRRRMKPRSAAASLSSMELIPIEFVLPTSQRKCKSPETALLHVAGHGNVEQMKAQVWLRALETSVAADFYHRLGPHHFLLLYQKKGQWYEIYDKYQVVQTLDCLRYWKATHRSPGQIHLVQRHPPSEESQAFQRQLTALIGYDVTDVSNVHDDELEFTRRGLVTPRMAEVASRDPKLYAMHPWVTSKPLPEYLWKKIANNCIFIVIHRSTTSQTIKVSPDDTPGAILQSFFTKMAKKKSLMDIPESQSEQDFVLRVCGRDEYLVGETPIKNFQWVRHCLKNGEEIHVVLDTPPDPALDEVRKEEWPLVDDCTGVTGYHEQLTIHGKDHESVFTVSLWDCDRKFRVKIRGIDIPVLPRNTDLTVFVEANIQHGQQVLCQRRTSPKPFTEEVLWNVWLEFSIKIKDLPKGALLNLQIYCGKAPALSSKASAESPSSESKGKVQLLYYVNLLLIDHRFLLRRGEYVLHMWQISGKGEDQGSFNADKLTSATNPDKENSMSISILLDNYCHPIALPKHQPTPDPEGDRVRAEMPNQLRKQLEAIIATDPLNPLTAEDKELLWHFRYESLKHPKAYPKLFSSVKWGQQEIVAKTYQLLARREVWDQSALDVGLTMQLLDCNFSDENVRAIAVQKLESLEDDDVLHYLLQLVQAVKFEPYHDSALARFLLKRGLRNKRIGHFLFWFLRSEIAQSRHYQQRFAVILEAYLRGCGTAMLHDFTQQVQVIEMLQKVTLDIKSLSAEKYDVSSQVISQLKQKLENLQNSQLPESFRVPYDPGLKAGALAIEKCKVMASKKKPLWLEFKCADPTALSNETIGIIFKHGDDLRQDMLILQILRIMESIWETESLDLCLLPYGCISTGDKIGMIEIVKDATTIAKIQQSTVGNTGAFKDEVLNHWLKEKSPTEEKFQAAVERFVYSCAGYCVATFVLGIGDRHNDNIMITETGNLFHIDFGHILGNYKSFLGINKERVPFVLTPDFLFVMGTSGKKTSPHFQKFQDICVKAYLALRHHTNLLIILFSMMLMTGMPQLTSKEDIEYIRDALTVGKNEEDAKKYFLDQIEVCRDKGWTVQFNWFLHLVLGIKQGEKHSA

Sequence of MAPK14 (human) (Q16539 whole entry, looked up): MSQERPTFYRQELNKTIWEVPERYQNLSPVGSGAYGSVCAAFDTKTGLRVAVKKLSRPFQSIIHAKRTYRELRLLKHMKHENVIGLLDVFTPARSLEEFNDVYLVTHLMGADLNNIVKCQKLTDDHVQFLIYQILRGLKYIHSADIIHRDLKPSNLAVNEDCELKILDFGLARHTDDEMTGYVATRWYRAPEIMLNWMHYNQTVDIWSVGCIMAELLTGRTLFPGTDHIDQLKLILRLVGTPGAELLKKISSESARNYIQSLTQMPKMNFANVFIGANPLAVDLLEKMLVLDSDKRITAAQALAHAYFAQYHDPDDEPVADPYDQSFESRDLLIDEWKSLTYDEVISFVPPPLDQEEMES
Sequence of PIK3CA (human) (P42336 whole entry, looked up): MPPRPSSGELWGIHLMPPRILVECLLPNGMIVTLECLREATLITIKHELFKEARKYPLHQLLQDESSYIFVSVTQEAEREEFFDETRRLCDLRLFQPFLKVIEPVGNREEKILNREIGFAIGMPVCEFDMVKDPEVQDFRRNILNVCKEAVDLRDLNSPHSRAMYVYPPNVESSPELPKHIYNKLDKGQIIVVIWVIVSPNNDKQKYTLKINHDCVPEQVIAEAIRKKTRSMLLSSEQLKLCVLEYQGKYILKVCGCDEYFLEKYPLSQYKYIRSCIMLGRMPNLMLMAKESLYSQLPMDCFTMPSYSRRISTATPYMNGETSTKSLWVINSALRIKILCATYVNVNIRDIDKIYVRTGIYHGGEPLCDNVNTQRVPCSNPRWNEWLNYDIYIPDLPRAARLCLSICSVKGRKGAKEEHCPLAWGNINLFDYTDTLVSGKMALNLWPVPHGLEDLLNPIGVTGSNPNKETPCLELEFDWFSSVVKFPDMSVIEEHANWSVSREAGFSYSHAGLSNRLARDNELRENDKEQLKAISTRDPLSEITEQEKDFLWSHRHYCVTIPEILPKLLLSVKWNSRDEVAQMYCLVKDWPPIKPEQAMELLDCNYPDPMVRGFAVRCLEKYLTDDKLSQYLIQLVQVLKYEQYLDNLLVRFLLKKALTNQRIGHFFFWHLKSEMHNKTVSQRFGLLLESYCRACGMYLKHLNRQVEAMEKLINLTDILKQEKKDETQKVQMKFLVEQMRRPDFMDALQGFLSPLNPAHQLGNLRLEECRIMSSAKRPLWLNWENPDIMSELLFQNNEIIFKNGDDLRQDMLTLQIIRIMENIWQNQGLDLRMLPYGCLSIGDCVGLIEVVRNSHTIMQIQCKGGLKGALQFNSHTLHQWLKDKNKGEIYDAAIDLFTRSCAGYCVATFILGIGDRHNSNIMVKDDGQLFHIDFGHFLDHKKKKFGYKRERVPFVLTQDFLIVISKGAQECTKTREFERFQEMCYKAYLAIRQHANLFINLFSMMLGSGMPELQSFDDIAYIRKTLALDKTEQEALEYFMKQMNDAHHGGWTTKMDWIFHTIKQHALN

Row | Compound | IC50 [1] [µM] | IC50 [2] [µM] | IC50 [3] [µM] | IC50 [4] [µM]
1 | COc1cc2c(cc1OC1CCN(C)CC1)ncc1c3ccc(C#N)cc3[nH]c21 | 5.7 | 6.82 |  | 
2 | COc1cc2c(cc1OCC1CCCCN1C)ncc1c3ccc(C#N)cc3[nH]c21 (stereo not drawn) | 1.1 | > 50 |  | 
3 | COc1cc2ncc3c4ccc(C#N)cc4[nH]c3c2cc1OC | 0.599 | > 88.8 | 1.7 | 3.4
4 | COc1cc2c(cc1OCCCN1CCN(C)CC1)ncc1c3ccc(C#N)cc3[nH]c21 | 0.479 | > 47 |  | 

Second part, the compound after the results:

Row | IC50 [1] [µM] | IC50 [2] [µM] | IC50 [3] [µM] | IC50 [4] [µM] | Compound
5 | 1.01 | > 49.4 |  |  | COc1cc2c(cc1OCCN(C)C)ncc1c3ccc(C#N)cc3[nH]c21
6 | 1.21 | > 45.6 |  |  | COCCOc1cc2ncc3c4ccc(C#N)cc4[nH]c3c2cc1OC
7 | 4.35 | > 36.2 | > 7.25 | > 7.25 | COc1cc2c(cc1OCCCN(C)C)ncc1c3ccc(C#N)cc3[nH]c21
